How the values were obtained:
HepG2 cells = details: HepG2 cells; downloaded from ChEMBL ref F.J. Gamo et al., Nature 2010; cited from earlier work
[1] = target: T1, Plasmodium falciparum calcium-dependent protein kinase 1 (CDPK1) (Plasmodium falciparum, UniProt P62344); assay: CDPK1 Kinase-Glo ATP-consumption screen and dose-response; assay type: biochemical; details: hits below 1 uM; read-out: CDPK1 IC50
T1 construct: 6-Histidine (N); made in house
Method: Biochemical assays were performed in white 384-well plates (Nunc). Liquid transfers were done manually with 8-channel pipets. Compounds were initially tested in a single-point screen (final concentration 1 μM). […] The catalytic activity of each kinase was considered proportional to ATP consumed, as determined from measurements of residual [ATP] with the luciferase-based reagent Kinase-Glo (Promega) following incubation. Luminescence (proportional to residual [ATP]) was measured on the plate readers FLx800 (BioTek Instruments, Winooski, VT, USA) and MicroBeta^2 (PerkinElmer, Waltham, MA, USA). Incubation times were chosen to ensure near-complete ATP depletion in the absence of inhibition, thus maximizing the difference in signal between inhibited and uninhibited wells.
40 μM Syntide-2 was used as a substrate; BKI-1 [14] was used as a control inhibitor, while reaction mixtures lacking Syntide-2 were included as an additional negative control. Incubation time was 90 minutes. Reactions were terminated by adding excess EGTA (5 mM), which sequesters Ca^2+ and halts calcium-dependent kinase activity.

DD2 = tested on: DD2; set-up: method as in F.J. Gamo et al., Nature 2010; details: P. falciparum Dd2; downloaded from ChEMBL ref F.J. Gamo et al., Nature 2010; cited from earlier work
P. falciparum 3D7 cells = details: P. falciparum 3D7; downloaded from ChEMBL ref F.J. Gamo et al., Nature 2010; cited from earlier work
3D7 PFLDH = tested on: 3D7 PFLDH; set-up: method as in F.J. Gamo et al., Nature 2010; details: downloaded from ChEMBL ref F.J. Gamo et al., Nature 2010; cited from earlier work

T1 sequence (P62344 whole entry): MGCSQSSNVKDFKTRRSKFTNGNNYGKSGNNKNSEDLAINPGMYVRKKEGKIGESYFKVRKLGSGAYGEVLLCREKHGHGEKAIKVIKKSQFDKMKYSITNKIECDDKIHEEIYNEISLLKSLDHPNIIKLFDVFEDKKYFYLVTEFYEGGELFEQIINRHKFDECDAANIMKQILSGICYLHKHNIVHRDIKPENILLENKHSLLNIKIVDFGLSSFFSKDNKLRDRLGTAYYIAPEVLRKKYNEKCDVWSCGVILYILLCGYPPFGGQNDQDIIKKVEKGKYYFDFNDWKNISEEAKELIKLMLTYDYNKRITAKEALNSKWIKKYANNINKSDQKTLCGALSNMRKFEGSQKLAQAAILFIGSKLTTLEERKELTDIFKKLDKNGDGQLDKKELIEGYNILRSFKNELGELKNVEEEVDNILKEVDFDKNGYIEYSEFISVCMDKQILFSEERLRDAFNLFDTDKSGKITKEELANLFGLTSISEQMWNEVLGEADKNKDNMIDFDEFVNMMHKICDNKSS

| SMILES | PCT_INHIB_HEPG2 (HepG2 cells) | IC50 [1] | PCT_INHB_DD2 (DD2) | PCT_IHB_3D7 (P. falciparum 3D7 cells) | pXC50_3D7 (P. falciparum 3D7 cells) | PCT_INHIB_3D7_PFLDH (3D7 PFLDH) |
| --- | --- | --- | --- | --- | --- | --- |
| COc1ccc2nc(-c3cc(-c4ccc(NC(C)=O)cc4)cnc3N)[nH]c2c1 [TCMDC-135365] | 55 | 501 nM | 73 | 93 | 5.906 | 0 |
| COc1cccc(Nc2nccc(-c3c(-c4cccc(NC(=O)c5c(F)cccc5F)c4)nn4ccccc34)n2)c1 [TCMDC-135508] | 35 | 87 nM | 98 | 98 | 6.749 | 0 |
| CS(=O)(=O)Cc1ccc(Nc2nccc(-c3c(-c4cccc(NC(=O)c5c(F)cccc5F)c4)nn4ncccc34)n2)cc1 [TCMDC-135681] | 86 | 11 nM | 93 | 97 | 6.79 | 1 |
| CCn1c(-c2nonc2N)nc2c(-c3cccc(NC(=O)Nc4ccc(Cl)cc4)c3)ncc(OCCCN)c21.O=C(O)C(F)(F)F [TCMDC-136152] | 26 | 44 nM | 72 | 96 | 6.082 | 0 |
| Cl.Oc1cc(-c2nc(-c3ccccc3)[nH]c2-c2ccncc2)ccc1Cl [TCMDC-139660] | 64 | 975 nM | 91 | 96 | 6.089 | 0 |
| CC(C)(CNCc1ccccc1)c1nc(-c2ccc(Cl)c(O)c2)c(-c2ccncc2)[nH]1.Cl [TCMDC-140389] | 77 | 190 nM | 99 | 100 | 6.27 | 0 |
| COc1ccc(CNCC(C)(C)c2nc(-c3ccc(Cl)c(O)c3)c(-c3ccncc3)[nH]2)cc1.Cl [TCMDC-140538] | 76 | 186 nM | 99 | 100 | 6.447 | 1 |
| CC(C)(CNCc1ccc(Cl)cc1)c1nc(-c2ccc(Cl)c(O)c2)c(-c2ccncc2)[nH]1.Cl [TCMDC-140548] | 86 | 257 nM | 98 | 100 | 6.322 | 5 |
| CC(C)(CNCc1ccc(F)c(F)c1)c1nc(-c2ccc(Cl)c(O)c2)c(-c2ccncc2)[nH]1.Cl [TCMDC-140672] | 74 | 451 nM | 89 | 100 | 6.181 | 2 |
| COc1cc(-c2nc(C(C)(C)CN)[nH]c2-c2ccncc2)ccc1Br.Cl [TCMDC-140674] | 17 | 159 nM | 95 | 97 | 6.114 | 1 |
| CC(C)(NCc1ncc[nH]1)c1nc(-c2ccc(Cl)c(O)c2)c(-c2ccncc2)[nH]1.Cl [TCMDC-140686] | 42 | 144 nM | 97 | 95 |  | 3 |
| COc1cccc(CNCC(C)(C)c2nc(-c3ccc(Cl)c(O)c3)c(-c3ccncc3)[nH]2)c1.Cl [TCMDC-140687] | 74 | 275 nM | 98 | 100 | 6.159 | 0 |
| CC(C)(CNCc1ccc(Cl)c(Cl)c1)c1nc(-c2ccc(Cl)c(O)c2)c(-c2ccncc2)[nH]1.Cl [TCMDC-140688] | 43 | 539 nM | 97 | 100 | 6.121 | 0 |
| CN1CCC=C(C(=O)NCC(C)(C)c2nc(-c3ccc(Cl)c(O)c3)c(-c3ccncc3)[nH]2)C1.Cl [TCMDC-140700] | 39 | 213 nM | 96 | 96 | 6 | 0 |
| CC(C)(CNCc1ccc(OC(F)(F)F)cc1)c1nc(-c2ccc(Cl)c(O)c2)c(-c2ccncc2)[nH]1.Cl [TCMDC-140708] | 38 | 438 nM | 99 | 100 | 6.263 | 0 |
| COc1ccc(C(=O)NCC(C)(C)c2nc(-c3ccc(Cl)c(O)c3)c(-c3ccncc3)[nH]2)cc1OCCN(C(C)C)C(C)C.Cl [TCMDC-140736] | 62 | 387 nM | 96 | 100 | 6.192 | 4 |
| CNCC(C)(C)c1nc(-c2ccc(Cl)c(O)c2)c(-c2ccncc2)[nH]1.Cl [TCMDC-140762] | 46 | 49 nM | 96 | 98 | 6.133 | 0 |
| CC(C)(CNC(=O)C1CCN(Cc2ccoc2)CC1)c1nc(-c2ccc(Cl)c(O)c2)c(-c2ccncc2)[nH]1.Cl [TCMDC-140954] | 0 | 425 nM | 66 | 93 | 6.062 | 0 |
| CC(C)(CN)c1nc(-c2ccc(Cl)c(O)c2)c(-c2ccnc(N)n2)[nH]1 [TCMDC-141019] | 34 | 7.49 nM | 95 | 95 | 6.0083 | 0 |
| CC(C)(CNC(=O)[C@H]1CCCN1)c1nc(-c2ccc(Cl)c(O)c2)c(-c2ccncc2)[nH]1.Cl [TCMDC-141060] | 0 | 179 nM | 95 | 86 | 5.895 | 0 |
| CC(C)(CNC(=O)[C@H]1CCCCN1)c1nc(-c2ccc(Cl)c(O)c2)c(-c2ccncc2)[nH]1.Cl [TCMDC-141070] | 6 | 164 nM | 98 | 98 | 6.139 | 0 |
| CC(C)(CNC(=O)[C@@H]1CCCCN1)c1nc(-c2ccc(Cl)c(O)c2)c(-c2ccncc2)[nH]1.Cl [TCMDC-141079] | 0 | 192 nM | 96 | 97 | 6.075 | 0 |
| CC(C)(CNC(=O)C1CCN(CCOCc2ccccc2)CC1)c1nc(-c2ccc(Cl)c(O)c2)c(-c2ccncc2)[nH]1.Cl [TCMDC-141122] | 11 | 734 nM | 18 | 100 | 6.208 | 0 |
